Columns and labels:
HEK293 = assay: MTT assay, cell viability; format: cell-based; settings: Homo sapiens, HEK293, 48 h of treatment, mean ± SD
Text: (§1) To examine the anticancer potential and selectivity of NB, we used a panel of six human prostate cancer cell lines, harboring different levels of treatment resistance to representatively reflect the heterogeneity of the disease. […] Additionally, four human noncancer cells lines were utilized in order to determine the selectivity of NB towards prostate cancer cells, i.e., prostate noncancer PNT2 and RWPE-1 cells, human embryonic kidney HEK 293T cells, and human fibroblasts MRC-9. The different cell lines were treated with NB and the cell viability was examined using MTT assay (Figure 1). The mean IC50 of NB and docetaxel (used as a reference substance) in noncancerous cell lines was divided by the mean IC50 in the prostate cancer cell lines to determine the selectivity index (SI).
(§2) The MTT assay was used to monitor the effect of the drugs on cell viability in terms of metabolic activity, as previously reported. First, preincubation of the cells in 96-well plates (6 × 10^3 cells/well in 100 μL/well) was performed overnight in the correspondent culture medium. Next, the medium was exchanged for fresh medium containing the investigated compounds or a vehicle (100 μL/well). Cells were then incubated for 48 h, unless otherwise stated. Then, 10 μL/well of 3-(4,5-dimethylthiazol-2-yl)-2,5-diphenyltetrazolium bromide reagent (MTT, 5 mg/mL) were added. After 2–4 h of additional incubation the media was removed, and the plates were dried. Finally, 50 μL/well of DMSO were added to solve the formed formazan crystals produced by the metabolic active cells and Infinite F200PRO reader (TECAN, Männedorf, Switzerland) was used to measure the cell viability. The results were proceeded with a GraphPad Prism software v.9.1.1 (GraphPad Software, San Diego, CA, USA). Cells treated with the solvent of the drugs alone were used as a control (100% alive cells). The effect of the drugs on cell viability is represented as IC50.

LNCaP = assay: MTT assay, cell viability; format: cell-based; settings: Homo sapiens, 48 h of treatment, mean ± SD
Text: as §1, §2

MRC-9 = assay: MTT assay, cell viability; format: cell-based; settings: Homo sapiens, MRC9, MRC-9, 48 h of treatment, mean ± SD
Text: as §1, §2

prostate cancer cells = assay: MTT assay, mean IC50 in cancer cell panel and selectivity index; format: cell-based, human
Text: as §1, §2

p-gp in PC3-DR cells = assay: Western blotting, p-gp expression; format: cell-based, human; settings: 48 h, up to 6 µM
Experimental: Number of replicates n = 3. […] Viability was measured using an MTT assay. Number of replicates n = 3.
It is important to note that a reduction in p-gp activity could be conditioned by p-gp degradation or cell death-related processes. Consequently, using a Western blotting analysis, we measured p-gp expressional levels in the treated PC3-DR cells. […] Thus, the observed effect on p-gp activity seems to be exclusively related to the interaction of NB with p-gp rather than result from any cell death-related events.
The Western blot assay was executed as previously described: 1 × 10^6 cells were seeded in Petri dishes (ø 6 cm, 5 mL/dish) and incubated overnight. On the next day, the cells were treated with the compounds in fresh culture media (5 mL/dish) for the indicated time. Next, cells were harvested with a cell scraper and lysed in lysis buffer including protease and phosphatase inhibitors cocktail (Roche, Mannheim, Germany). Cell debris were removed from the protein lysates via centrifugation. Afterwards, the cell-free protein mixtures were separated in gradient ready-made Mini-PROTEAN® TGX Stain-Free^TM gels (Bio-Rad, Hercules, CA, USA) using SDS-PAGE (sodium dodecylsulfate polyacrylamide gel electrophoresis). Then, the proteins were blotted onto ø 0.2 µm pore PVDF membrane. […] The signals were detected using the ECL chemiluminescence system (Thermo Scientific, Rockford, IL, USA).

PC3-DR cells = assay: Drug combination study NB with docetaxel, MTT assay, SynergyFinder 2.0; format: cell-based; settings: Homo sapiens, 24 h
Experimental: Thus, drug-resistant PC3-DR cells were treated with docetaxel in combination with NB (Figure 9). Potential synergism between NB and docetaxel was measured by the Chou–Talalay method as described before.
Figure 9 Combinational treatment on PC3-DR cells with NB and docetaxel. […] MTT assay was used to examine cellular viability. Number of replicates n = 3. (A) The heatmap represents cytotoxicity (viability inhibition) of the individual drugs or their combinations. (B,C) To calculate and visualize in 2D (B) or 3D (C) the effect of the drug combination (synergism/additive effect/antagonism), the SynergyFinder v. 2.0 software (Network Pharmacology for Precision Medicine in the Research Program of System Oncology, Faculty of Medicine at University of Helsinki, Helsinki, Finland) and a ZIP reference model were used. Green regions indicate antagonism, white regions refer to additive effect, and red regions indicate synergism.
The experiments were carried out as previously reported. […] 22Rv1 cells (6 × 10^3 cells/well in 96-well plates) were simultaneously treated with NB and docetaxel; or pretreated with MAPK inhibitors for 1 h following treatment with NB in the total media volume of 100 µL/well. Following 24 h of incubation, the viability of the cells treated with individual drugs as well as their combinations was determined using MTT assay. […] Red areas (positive δ-values) and green areas (negative δ-values) indicate synergism and antagonism, respectively.

[1] = tested on: panel of 14 human cancer cell lines and one prostate cancer cell line DU145; set-up: method as in PMID 26039736; settings: panel of 14 human cancer cell lines and DU145, no significant anticancer activity; cited from earlier work
[2] = tested on: mouse lymphoma cells L5178Y; set-up: method as in doi:10.1016/j.phytol.2014.12.010; settings: cited from earlier work

SMILES: COc1ccc(C2SSC34CC5(O)C(Cl)C=CC(O)C5ON3C(=O)C2N(C)C4=O)c(O)c1OC (stereo not drawn) [NB, N-methylpretrichodermamide B]
- IC50 (HEK293): 9.3 ± 1.57 µM
- IC50 (LNCaP): 12.2 ± 2.97 µM
- IC50 (MRC-9): 11.1 ± 4.3 µM
- IC50 (prostate cancer cells; Homo sapiens, mean over PC3, PC3-DR, DU145, 22Rv1, VCaP, LNCaP, 48 h, MTT): 6.46 µM
- Selectivity Index (SI) (prostate cancer cells; [mean IC50 in noncancer cells]/[mean IC50 in cancer cells]): 2.4
- p-gp expression (p-gp in PC3-DR cells): no significant changes in p-gp expression
- inhibition at 0.22 µM (PC3-DR cells): 9.85%
- inhibition at 0.67 µM (PC3-DR cells): 15.5%
- inhibition at 2 µM (PC3-DR cells): 14.3%
- inhibition at 6 µM (PC3-DR cells): 17.2%
- IC50 [1]: > 10 µM
- IC50 [2]: 2 µM
